Results from the supplement of paper PMC11208160.

assay: recombinant UMI read abundance after kanamycin selection (control-corrected) (log10(CPM+1)); higher = more efficient recombination; extreme values may be limits of the assay; sequences stand for … in AGTGCAGAGAAAATCGGCCAGTTTTCTCTGCCTGCAGTCCGCATGCCGTGGGACCCCTTGGGTTCTAACCTGTTGCCTAGATTTATGCAGCGGACTGCCTTTCTCCCAAAGTGATAAACCGG…AGGTTGGTTTCACT; site = the 11-nt donor
Method: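 Pooled E. coli donor-specificity screen for the IS621 bridge recombinase. Each library member carries a reprogrammed 11-nt donor and a full-length LE bridge RNA expressed in cis from the natural promoter, with a paired donor-binding loop (8-nt LDG + 4-nt RDG) and a target-binding loop fixed to T5. It is co-electroporated with a T5 target plasmid; recombinase is induced with 0.07 mM IPTG and recombinants are selected on kanamycin. UMIs are counted as CPM, averaged over two biological replicates and corrected by the unselected control. Molecule = full bridge RNA written as DNA, built from the T5 scaffold: LDG = donor specificity nt 1-8, RDG = reverse complement of nt 8-11.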
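Further: IS621 bridge recombinase in Escherichia coli cells against a fixed T5 target plasmid.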

Row | Sequence | recombinant UMI read abundance (log10)
1 | AAAACTTCATGGACCGGTTTTCCCGGTAATCCGTATTTGTC (site AAAACTTCTGA) | 0
2 | AAAAGTCCATGGACCGGTTTTCCCGGTAATCCGTATTTGTA (site AAAAGTCCTTA) | 0.66
3 | AAAAGTCCATGGACCGGTTTTCCCGGTAATCCGTATTTGTA (site CAAAGTCCTTA) | 0.48
4 | AAAAGTCCATGGACCGGTTTTCCCGGTAATCCGTATTTGTA (site GAAAGTCCTTA) | 0.273
5 | AAAAGTCCATGGACCGGTTTTCCCGGTAATCCGTATTTGTA (site TAAAGTCCTTA) | 1.12
6 | AAACATCCATGGACCGGTTTTCCCGGTAATCCGTATTTGAC (site AAACATCCTGT) | 1.26
7 | AAACATCCATGGACCGGTTTTCCCGGTAATCCGTATTTGAC (site ACACATCCTGT) | 0
8 | AAACATCCATGGACCGGTTTTCCCGGTAATCCGTATTTGAC (site AGACATCCTGT) | 0
9 | AAACATCCATGGACCGGTTTTCCCGGTAATCCGTATTTGAC (site ATACATCCTGT) | 0
10 | AAACGTCCATGGACCGGTTTTCCCGGTAATCCGTATTTGTT (site AAACGTCCTAA) | 0.525
11 | AAACTTACATGGACCGGTTTTCCCGGTAATCCGTATTTGCA (site AAACTTACTTG) | 1.52
12 | AAACTTGCATGGACCGGTTTTCCCGGTAATCCGTATTTGGC (site AAACTTGCTGC) | 0
13 | AAAGAAGCATGGACCGGTTTTCCCGGTAATCCGTATTTGGA (site AAAGAAGCTTC) | 1.94
14 | AAAGAGGCATGGACCGGTTTTCCCGGTAATCCGTATTTGCA (site AAAGAGGCTTG) | 2.9
15 | AAAGATCCATGGACCGGTTTTCCCGGTAATCCGTATTTGCC (site AAAGATCCTGG) | 0
16 | AAAGCAGCATGGACCGGTTTTCCCGGTAATCCGTATTTGCT (site AAAGCAGCTAG) | 1.82
17 | AAAGCAGCATGGACCGGTTTTCCCGGTAATCCGTATTTGCT (site CAAGCAGCTAG) | 1.5
18 | AAAGCAGCATGGACCGGTTTTCCCGGTAATCCGTATTTGCT (site GAAGCAGCTAG) | 0.198
19 | AAAGCAGCATGGACCGGTTTTCCCGGTAATCCGTATTTGCT (site TAAGCAGCTAG) | 1.67
20 | AAAGCCACATGGACCGGTTTTCCCGGTAATCCGTATTTGTA (site AAAGCCACTTA) | 1.82
21 | AAAGGTACATGGACCGGTTTTCCCGGTAATCCGTATTTGAG (site AAAGGTACTCT) | 2.1
22 | AAAGGTTCATGGACCGGTTTTCCCGGTAATCCGTATTTGGG (site AAAGGTTCTCC) | 1.05
23 | AAAGTAACATGGACCGGTTTTCCCGGTAATCCGTATTTGCA (site AAAGTAACTTG) | 2.88
24 | AAAGTAACATGGACCGGTTTTCCCGGTAATCCGTATTTGCA (site ACAGTATCTTG) | 2.56

Row | Sequence | recombinant UMI read abundance (log10)
25 | AAAGTACCATGGACCGGTTTTCCCGGTAATCCGTATTTGCG (site AAAGTACCTCG) | 0.0963
26 | AAAGTCTCATGGACCGGTTTTCCCGGTAATCCGTATTTGAT (site AAAGTCTCTAT) | 3.17
27 | AAAGTCTCATGGACCGGTTTTCCCGGTAATCCGTATTTGCA (site AAAGTCTCTTG) | 3.16
28 | AAAGTCTCATGGACCGGTTTTCCCGGTAATCCGTATTTGCA (site ACAGTATCTTG) | 1.99
29 | AAATAACCATGGACCGGTTTTCCCGGTAATCCGTATTTGAA (site AAATAACCTTT) | 0
30 | AAATAAGCATGGACCGGTTTTCCCGGTAATCCGTATTTGGG (site AAATAAGCTCC) | 0.434
31 | AAATCCGCATGGACCGGTTTTCCCGGTAATCCGTATTTGTC (site AAATCCGCTGA) | 2.33
32 | AAATGGGCATGGACCGGTTTTCCCGGTAATCCGTATTTGCT (site AAATGGGCTAG) | 2.28
33 | AAATGTTCATGGACCGGTTTTCCCGGTAATCCGTATTTGCC (site AAATGTTCTGG) | 2.2
34 | AAATTCCCATGGACCGGTTTTCCCGGTAATCCGTATTTGCT (site AAATTCCCTAG) | 1.37
35 | AAATTCCCATGGACCGGTTTTCCCGGTAATCCGTATTTGCT (site CAATTCCCTAG) | 0.647
36 | AAATTCCCATGGACCGGTTTTCCCGGTAATCCGTATTTGCT (site GAATTCCCTAG) | 0.544
37 | AAATTCCCATGGACCGGTTTTCCCGGTAATCCGTATTTGCT (site TAATTCCCTAG) | 1.08
38 | AAATTCCCATGGACCGGTTTTCCCGGTAATCCGTATTTGGT (site AAATTCCCTAC) | 0
39 | AACACACCATGGACCGGTTTTCCCGGTAATCCGTATTTGAC (site AACACACCTGT) | 0
40 | AACACCTCATGGACCGGTTTTCCCGGTAATCCGTATTTGAT (site AACACCTCTAT) | 1.76
41 | AACAGAGCATGGACCGGTTTTCCCGGTAATCCGTATTTGAT (site AACAGAGCTAT) | 2.02
42 | AACCAAACATGGACCGGTTTTCCCGGTAATCCGTATTTGTC (site AACCAAACTGA) | 0
43 | AACCCACCATGGACCGGTTTTCCCGGTAATCCGTATTTGGA (site AACCCACCTTC) | 0.0204
44 | AACCGCCCATGGACCGGTTTTCCCGGTAATCCGTATTTGAT (site AACCGACCTAT) | 0.0035
45 | AACCGCCCATGGACCGGTTTTCCCGGTAATCCGTATTTGAT (site AACCGCCCTAT) | 0.00906
46 | AACCGCCCATGGACCGGTTTTCCCGGTAATCCGTATTTGAT (site AACCGGCCTAT) | 0.00971
47 | AACCGCCCATGGACCGGTTTTCCCGGTAATCCGTATTTGAT (site AACCGTCCTAT) | 0.0447
48 | AACCGGCCATGGACCGGTTTTCCCGGTAATCCGTATTTGAT (site AACCGACCTAT) | 0

Row | Sequence | recombinant UMI read abundance (log10)
49 | AACCGGCCATGGACCGGTTTTCCCGGTAATCCGTATTTGAT (site AACCGCCCTAT) | 0.014
50 | AACCGGCCATGGACCGGTTTTCCCGGTAATCCGTATTTGAT (site AACCGGCCTAT) | 0.016
51 | AACCGGCCATGGACCGGTTTTCCCGGTAATCCGTATTTGAT (site AACCGTCCTAT) | 0.0213
52 | AACCGGTCATGGACCGGTTTTCCCGGTAATCCGTATTTGGA (site AACCGGTCTTC) | 0.422
53 | AACCGTCCATGGACCGGTTTTCCCGGTAATCCGTATTTGAA (site AACCGTCCTAT) | 0.0196
54 | AACCGTCCATGGACCGGTTTTCCCGGTAATCCGTATTTGAA (site AACCGTCCTCT) | 0.0191
55 | AACCGTCCATGGACCGGTTTTCCCGGTAATCCGTATTTGAA (site AACCGTCCTGT) | 0
56 | AACCGTCCATGGACCGGTTTTCCCGGTAATCCGTATTTGAA (site AACCGTCCTTT) | 0.0144
57 | AACCGTCCATGGACCGGTTTTCCCGGTAATCCGTATTTGCT (site AACCGTCCTAA) | 0.0135
58 | AACCGTCCATGGACCGGTTTTCCCGGTAATCCGTATTTGCT (site AACCGTCCTAC) | 0.00247
59 | AACCGTCCATGGACCGGTTTTCCCGGTAATCCGTATTTGCT (site AACCGTCCTAG) | 0.593
60 | AACCGTCCATGGACCGGTTTTCCCGGTAATCCGTATTTGCT (site AACCGTCCTAT) | 0.0146
61 | AACCGTCCATGGACCGGTTTTCCCGGTAATCCGTATTTGGT (site AACCGTCCTAA) | 0.0129
62 | AACCGTCCATGGACCGGTTTTCCCGGTAATCCGTATTTGGT (site AACCGTCCTAC) | 0.0164
63 | AACCGTCCATGGACCGGTTTTCCCGGTAATCCGTATTTGGT (site AACCGTCCTAG) | 0.00368
64 | AACCGTCCATGGACCGGTTTTCCCGGTAATCCGTATTTGGT (site AACCGTCCTAT) | 0.00572
65 | AACCTTCCATGGACCGGTTTTCCCGGTAATCCGTATTTGAA (site AACCTTCCTTT) | 0.0147
66 | AACGACGCATGGACCGGTTTTCCCGGTAATCCGTATTTGTA (site AACGACGCTTA) | 1.99
67 | AACGAGCCATGGACCGGTTTTCCCGGTAATCCGTATTTGAA (site AACGAGCCTTT) | 0.157
68 | AACGCAACATGGACCGGTTTTCCCGGTAATCCGTATTTGTT (site AACGCAACTAA) | 0.495
69 | AACGCTGCATGGACCGGTTTTCCCGGTAATCCGTATTTGAA (site AACGCTGCTTT) | 1.06
70 | AACGGAACATGGACCGGTTTTCCCGGTAATCCGTATTTGAT (site AACGGAACTAT) | 2.33
71 | AACGGTCCATGGACCGGTTTTCCCGGTAATCCGTATTTGGC (site AACGGTCCTGC) | 0
72 | AACGTTTCATGGACCGGTTTTCCCGGTAATCCGTATTTGCT (site AACGTTTCTAG) | 2.48
